{
  "source": "patent EP0606463B1",
  "about": "“NEUROMEDIN B RECEPTOR ANTAGONISTS” (The Administrators of The Tulane Educational Fund, priority 1992, dated 1994)",
  "key": {"[1]": {"target": "T1, adenosine1 (Rattus norvegicus, UniProt P25099)", "T1 construct": "rat cerebral cortex (CCKB, PYY, neurotensin, ∝1-adrenergic, ∝2-adrenergic, muscarinic cholinergic, neural benzodiazepine, peripheral benzodiazepine, adenosine); from tissue; host or cells: rat cerebral cortex membranes", "T1 sequence (P25099 whole entry)": "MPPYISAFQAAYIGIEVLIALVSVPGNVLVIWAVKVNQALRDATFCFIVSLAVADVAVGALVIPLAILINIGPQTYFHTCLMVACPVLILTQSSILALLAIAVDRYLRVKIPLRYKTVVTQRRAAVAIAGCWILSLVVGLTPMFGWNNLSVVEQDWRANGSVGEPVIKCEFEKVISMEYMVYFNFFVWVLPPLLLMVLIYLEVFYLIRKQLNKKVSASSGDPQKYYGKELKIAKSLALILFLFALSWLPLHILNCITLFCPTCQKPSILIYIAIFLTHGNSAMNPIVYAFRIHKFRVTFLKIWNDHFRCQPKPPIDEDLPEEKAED", "assay": "Adenosine membrane receptor assay", "type": "binding", "conditions": "at 1 µM"}, "[2]": {"target": "T2, GRP Receptor (Rattus norvegicus, UniProt P52500)", "T2 construct": "from tissue; host or cells: dispersed pancreatic acini", "T2 sequence (P52500 whole entry)": "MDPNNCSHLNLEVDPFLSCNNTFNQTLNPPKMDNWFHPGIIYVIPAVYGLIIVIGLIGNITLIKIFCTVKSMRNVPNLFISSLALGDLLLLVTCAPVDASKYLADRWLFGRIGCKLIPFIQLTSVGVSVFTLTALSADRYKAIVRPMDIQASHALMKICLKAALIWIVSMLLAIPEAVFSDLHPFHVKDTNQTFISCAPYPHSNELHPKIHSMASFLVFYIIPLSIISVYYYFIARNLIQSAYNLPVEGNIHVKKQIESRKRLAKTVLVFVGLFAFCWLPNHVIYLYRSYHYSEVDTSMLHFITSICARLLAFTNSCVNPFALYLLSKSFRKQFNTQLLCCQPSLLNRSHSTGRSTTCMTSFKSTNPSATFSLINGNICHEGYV", "assay": "Amylase release from rat pancreatic acini", "type": "cell-based"}, "[3]": {"system": "TRH receptor", "assay": "TRH membrane assay", "type": "binding, rat", "conditions": "at 1 µM"}, "[4]": {"target": "T3, NMB Receptor (Rattus norvegicus, UniProt P24053)", "T3 construct": "a full length NMB-preferring bombesin receptor clone generated from rat esophagus; expressed in transfected cells; host or cells: BALB 3T3 cells", "T3 sequence (P24053 1-390)": "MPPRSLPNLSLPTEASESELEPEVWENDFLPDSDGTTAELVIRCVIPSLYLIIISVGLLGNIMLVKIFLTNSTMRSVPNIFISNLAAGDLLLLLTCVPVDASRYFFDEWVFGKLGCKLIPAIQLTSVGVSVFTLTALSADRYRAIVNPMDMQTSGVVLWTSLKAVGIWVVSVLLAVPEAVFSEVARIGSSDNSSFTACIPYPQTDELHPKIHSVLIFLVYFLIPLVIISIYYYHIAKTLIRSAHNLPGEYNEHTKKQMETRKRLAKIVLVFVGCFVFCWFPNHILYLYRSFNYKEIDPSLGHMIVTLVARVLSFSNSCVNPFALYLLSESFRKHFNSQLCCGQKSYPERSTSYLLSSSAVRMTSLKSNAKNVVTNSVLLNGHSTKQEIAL", "assay": "[3H]inositol phosphates (IP) in NMB-R transfected cells", "type": "cell-based", "summary_of_the_method": "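BALB 3T3 cells stably expressing rat NMB receptor, labelled 48 h with myo-[2-3H]inositol, then 60 min at 37°C in LiCl-containing buffer with agonists, or with 3 nM NMB plus antagonists. Total [3H]IP isolated by anion-exchange chromatography.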"}, "[5]": {"target": "T4, benzodiazepine-peripheral receptor (Rattus norvegicus, UniProt P16257)", "T4 construct": "rat cerebral cortex (CCKB, PYY, neurotensin, ∝1-adrenergic, ∝2-adrenergic, muscarinic cholinergic, neural benzodiazepine, peripheral benzodiazepine); from tissue; host or cells: rat cerebral cortex membranes", "T4 sequence (P16257 whole entry)": "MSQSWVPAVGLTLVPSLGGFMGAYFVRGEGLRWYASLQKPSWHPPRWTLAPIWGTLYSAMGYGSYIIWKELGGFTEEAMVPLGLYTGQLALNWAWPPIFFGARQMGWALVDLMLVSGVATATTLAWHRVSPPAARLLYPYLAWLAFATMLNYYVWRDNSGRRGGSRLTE", "assay": "Peripheral benzodiazepine membrane receptor assay", "type": "binding", "conditions": "at 1 µM"}, "[6]": {"target": "T5, endothelinA (Rattus norvegicus, UniProt P26684)", "T5 construct": "A10 smooth muscle cells (EtA membrane receptor assay); endogenous in cells; host or cells: A10 smooth muscle cells (membranes)", "T5 sequence (P26684 21-426)": "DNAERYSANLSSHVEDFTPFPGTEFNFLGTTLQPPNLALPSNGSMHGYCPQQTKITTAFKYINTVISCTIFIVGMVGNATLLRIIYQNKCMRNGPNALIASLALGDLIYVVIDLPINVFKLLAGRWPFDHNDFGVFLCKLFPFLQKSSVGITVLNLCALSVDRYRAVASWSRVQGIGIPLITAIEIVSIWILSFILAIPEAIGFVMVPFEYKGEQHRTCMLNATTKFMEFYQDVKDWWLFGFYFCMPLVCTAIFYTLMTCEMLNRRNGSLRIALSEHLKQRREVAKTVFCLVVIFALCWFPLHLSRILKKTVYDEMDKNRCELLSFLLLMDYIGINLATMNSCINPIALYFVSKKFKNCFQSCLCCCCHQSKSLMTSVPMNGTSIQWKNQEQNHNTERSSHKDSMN", "assay": "EtA membrane receptor assay (A10 smooth muscle cells)", "type": "binding", "conditions": "at 1 µM"}, "[7]": {"system": "endothelin-1-simulated increases in [^3H]IP", "assay": "Endothelin-1-stimulated [3H]IP in C-6 glioblastoma cells", "type": "cell-based, rat", "conditions": "for effect on endothelin-1-simulated increases in [^3H]IP in C-6 cells: Table 3", "method": "Total phosphoinositides in C-6 cells and in NMB-R transfected cells were determined as described previously, with minor modifications [Benya, R. V. et al. Mol. Pharmacol. 42:1058 (1992); and Wang, L-H. et al. Biochem. J. 286:641 (1992)]. Cells were grown to confluence in 24-well plates and then loaded with 100 µCi/ml myo-[2-^3H]inositol in Dulbecco's modified essential medium with 2% fetal bovine serum at 37°C for 48 hrs. Cells were washed and incubated in phosphoinositide buffer (standard buffer additionally containing 10 mM LiCl, 20 mM HEPES, 2 mM CaCl2, 2% BSA, and 1.2 mM MgSO4) for 15 min and then for 60 min at 37°C with agonists at various concentrations or with 3 nM NMB (a half-maximal effective concentration) and possible antagonists at different concentrations. Reactions were halted using ice-cold 1% HCl in methanol, and the inositol phosphates (IP) were isolated as described previously [Bologna, M. et al. Cancer 63:1714 (1989); and Endo, T. et al. J. Endocrinol. 131:313 (1991)]. Briefly, after loading of the anion exchange column, free [^3H]glycerophosphorylinositol was removed by washing with 5 mM disodium tetraborate in 60 mM sodium formate. Total [^3H]inositol phosphates were then eluted using 100 mM formic acid in 1.0 M ammonium formate as described previously [Benya, R. V. et al. Mol. Pharmacol. 42:1058 (1992); and Wang, L-H. et al. Biochem. J. 286:641 (1992)]."}, "[8]": {"system": "α2- adrenergic", "assay": "alpha2-adrenergic membrane receptor assay", "type": "binding, rat", "conditions": "at 1 µM"}, "[9]": {"target": "T6, delta opioid (Rattus norvegicus, UniProt P33533)", "T6 construct": "rat forebrain (TRH, mu and delta opioid membrane assays); from tissue; host or cells: rat forebrain membranes", "T6 sequence (P33533 whole entry)": "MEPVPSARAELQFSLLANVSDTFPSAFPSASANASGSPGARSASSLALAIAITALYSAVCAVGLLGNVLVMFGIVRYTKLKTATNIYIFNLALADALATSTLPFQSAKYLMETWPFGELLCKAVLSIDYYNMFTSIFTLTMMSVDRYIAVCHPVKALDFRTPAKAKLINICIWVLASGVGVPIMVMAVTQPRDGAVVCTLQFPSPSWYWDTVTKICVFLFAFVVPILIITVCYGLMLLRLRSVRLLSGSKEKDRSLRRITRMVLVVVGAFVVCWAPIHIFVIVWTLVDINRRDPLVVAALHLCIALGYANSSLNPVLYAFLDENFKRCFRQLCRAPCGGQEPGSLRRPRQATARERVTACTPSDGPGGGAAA", "assay": "delta opioid membrane assay", "type": "binding", "conditions": "at 1 µM"}, "[10]": {"system": "α1- adrenergic", "assay": "alpha1-adrenergic membrane receptor assay", "type": "binding, rat", "conditions": "at 1 µM"}, "[11]": {"target": "T7, CCKB (Rattus norvegicus, UniProt P30553)", "T7 construct": "rat cerebral cortex (CCKB, PYY, neurotensin); from tissue; host or cells: rat cerebral cortex membranes", "T7 sequence (P30553 whole entry)": "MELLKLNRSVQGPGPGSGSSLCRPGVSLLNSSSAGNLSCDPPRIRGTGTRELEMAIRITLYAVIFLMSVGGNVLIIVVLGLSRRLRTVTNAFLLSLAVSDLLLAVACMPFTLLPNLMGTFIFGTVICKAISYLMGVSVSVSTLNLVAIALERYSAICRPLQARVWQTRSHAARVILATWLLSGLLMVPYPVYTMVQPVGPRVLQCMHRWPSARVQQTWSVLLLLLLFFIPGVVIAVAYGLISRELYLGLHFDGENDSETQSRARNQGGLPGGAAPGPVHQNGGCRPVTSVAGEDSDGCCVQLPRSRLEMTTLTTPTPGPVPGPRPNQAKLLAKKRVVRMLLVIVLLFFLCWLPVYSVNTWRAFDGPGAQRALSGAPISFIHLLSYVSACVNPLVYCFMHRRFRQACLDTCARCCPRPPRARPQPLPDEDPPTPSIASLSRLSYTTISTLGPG", "assay": "CCKB membrane receptor assay", "type": "binding", "conditions": "at 1 µM"}, "[12]": {"system": "bradykinin1", "assay": "Bradykinin membrane receptor assay", "type": "binding", "conditions": "at 1 µM"}, "[13]": {"system": "muscarinic cholinergic", "assay": "Muscarinic cholinergic membrane receptor assay", "type": "binding, rat", "conditions": "at 1 µM"}, "[14]": {"target": "T8, β1-adrenergic (Homo sapiens, UniProt P08588)", "T8 construct": "receptors on plasma membranes on various tissues determined as described in METHODS; from tissue", "T8 sequence (P08588 whole entry)": "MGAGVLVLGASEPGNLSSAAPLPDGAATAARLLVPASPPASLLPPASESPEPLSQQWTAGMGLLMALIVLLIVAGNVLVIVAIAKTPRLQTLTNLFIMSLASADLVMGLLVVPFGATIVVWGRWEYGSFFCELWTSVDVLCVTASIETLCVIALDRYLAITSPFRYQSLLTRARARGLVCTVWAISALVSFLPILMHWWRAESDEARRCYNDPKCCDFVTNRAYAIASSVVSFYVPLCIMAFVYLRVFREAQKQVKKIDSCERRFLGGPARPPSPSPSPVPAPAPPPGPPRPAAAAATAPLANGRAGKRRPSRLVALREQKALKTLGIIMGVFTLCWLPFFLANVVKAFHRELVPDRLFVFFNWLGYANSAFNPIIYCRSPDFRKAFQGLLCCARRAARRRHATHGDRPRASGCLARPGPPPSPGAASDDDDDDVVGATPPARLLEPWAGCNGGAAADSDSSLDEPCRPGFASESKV", "assay": "beta1-adrenergic membrane receptor assay", "type": "binding", "conditions": "at 1 µM"}, "[15]": {"target": "T9, sigma opioid receptor (Cavia porcellus, UniProt Q60492)", "T9 construct": "guinea pig cerebral (N1, histamine H1, and sigma opioid membrane receptor assays); from tissue; host or cells: guinea pig cerebral membranes", "T9 sequence (Q60492 whole entry)": "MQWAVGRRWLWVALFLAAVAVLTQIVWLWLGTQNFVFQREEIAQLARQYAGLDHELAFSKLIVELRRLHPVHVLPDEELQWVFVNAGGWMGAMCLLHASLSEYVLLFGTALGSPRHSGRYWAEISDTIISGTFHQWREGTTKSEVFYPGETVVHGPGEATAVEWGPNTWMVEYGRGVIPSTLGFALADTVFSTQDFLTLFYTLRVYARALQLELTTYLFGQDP", "assay": "sigma opioid membrane receptor assay", "type": "binding, guinea pig", "conditions": "at 1 µM"}, "[16]": {"target": "T10, N-methyl D-aspartate receptors (Rattus norvegicus, UniProt P35439)", "T10 construct": "from tissue; host or cells: rat cerebral cortex membranes", "assay": "N-methyl-D-aspartate membrane receptor assay", "type": "binding", "conditions": "at 1 µM"}, "[17]": {"target": "T11, histamine H1 (Cavia porcellus, UniProt P31389)", "T11 construct": "guinea pig cerebral (N1, histamine H1, and sigma opioid membrane receptor assays); from tissue; host or cells: guinea pig cerebral membranes", "T11 sequence (P31389 whole entry)": "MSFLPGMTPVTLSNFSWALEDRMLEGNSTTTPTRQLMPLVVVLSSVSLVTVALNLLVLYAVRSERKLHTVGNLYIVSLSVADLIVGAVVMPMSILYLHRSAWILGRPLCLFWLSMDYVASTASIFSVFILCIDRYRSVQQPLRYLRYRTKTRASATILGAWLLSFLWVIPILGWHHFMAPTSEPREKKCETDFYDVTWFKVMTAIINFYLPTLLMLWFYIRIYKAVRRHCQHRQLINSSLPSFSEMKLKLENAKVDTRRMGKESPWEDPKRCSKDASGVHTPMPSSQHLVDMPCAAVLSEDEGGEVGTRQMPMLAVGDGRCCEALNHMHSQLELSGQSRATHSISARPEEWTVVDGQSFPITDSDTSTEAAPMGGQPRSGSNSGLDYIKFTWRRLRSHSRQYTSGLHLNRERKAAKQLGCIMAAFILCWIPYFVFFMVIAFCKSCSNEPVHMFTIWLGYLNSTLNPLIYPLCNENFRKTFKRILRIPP", "assay": "histamine H1 membrane receptor assay", "type": "binding, guinea pig", "conditions": "at 1 µM"}},
  "note": "Where a SMILES comes first, the peptide text is derived from it. Bridges are numbered along the chain shown (N, C = ends). [ ]: non-standard residue; d: D form. 2Nal = N[C@@H](Cc1ccc2ccccc2c1)C(=O)O; d2Nal = N[C@H](Cc1ccc2ccccc2c1)C(=O)O",
  "data": [
    {"smiles": "CC(C)[C@@H]1NC(=O)[C@H](CCCCN)NC(=O)[C@@H](Cc2c[nH]c3ccccc23)NC(=O)[C@H](Cc2ccc(O)cc2)NC(=O)[C@@H](NC(=O)[C@H](N)Cc2ccc3ccccc3c2)CSSC[C@@H](C(=O)N[C@@H](Cc2ccc3ccccc3c2)C(N)=O)NC1=O", "note": "[Analog #1, D-Nal-Cys-Tyr-D-Trp-Lys-Val-Cys-Nal-NH2] (H-[d2Nal]CY[dW]KVC[2Nal]-NH2; disulfide 2-7; N-terminus assumed)", "values": [
      {"measurement": "inhibition of binding to adenosine1", "setting": "[1]", "value": "did not inhibit binding"},
      {"measurement": "Rat Pancreatic Acini Amylase Release Alone (10µM)", "setting": "[2]; analog 10 µM alone, no-additive control 4 ± 1", "value": "5 ± 1", "unit": "% total"},
      {"measurement": "Rat Pancreatic Acini Amylase Release Plus Bn(0.3 nM)", "setting": "[2]; analog 10 µM plus Bn 0.3 nM, Bn without analog 15 ± 1", "value": "15 ± 2", "unit": "% total"},
      {"measurement": "effect on Bn-stimulated amylase release", "setting": "[2]; rat pancreatic acini, Bn 0.3 nM, peptide 10 µM", "value": "did not inhibit"},
      {"measurement": "inhibition of binding to TRH", "setting": "[3]", "value": "did not inhibit binding"},
      {"measurement": "regression slope of Schild plot", "setting": "[4]; 1, 3 or 10 µM cyclo SS-octa on NMB dose-response curve", "value": "1.1(+0.2)"},
      {"measurement": "complete inhibition of NMB-stimulated increases in [^3H]IP at", "setting": "[4]; NMB-R transfected cells", "value": 10, "unit": "µM"},
      {"measurement": "detectible inhibition of NMB-stimulated increases in [^3H]IP at", "setting": "[4]; NMB-R transfected cells", "value": 0.3, "unit": "µM"},
      {"measurement": "effect on NMB-stimulated increase in [^3H]IP", "setting": "[4]; NMB-R transfected cells, 3 nM NMB, peptide 10 µM", "value": "completely inhibited"},
      {"measurement": "NMB-R Transfected Cells [^3H]IP Alone (10 µ M)", "setting": "[4]; analog 10 µM alone, no-additive control 13 ± 3", "value": "12 ± 2", "unit": "dpm x 10^3"},
      {"measurement": "NMB-R Transfected Cells [^3H]IP Plus NMB (3 nM)", "setting": "[4]; analog 10 µM plus NMB 3 nM, NMB without analog 186 ± 58", "value": "8 ± 4", "unit": "dpm x 10^3"},
      {"measurement": "Kd", "setting": "[4]; rightward shift of NMB dose-response curve, NMB-R transfected cells, read-out: affinity for the NMB receptor from Schild plot", "value": "231 ± 43", "unit": "nM"},
      {"measurement": "inhibition of binding to benzodiazepine peripheral", "setting": "[5]", "value": "did not inhibit binding"},
      {"measurement": "inhibition of binding to endothelinA", "setting": "[6]", "value": "did not inhibit binding"},
      {"measurement": "[^3H]IP, Peptide Added ET-1 (0.1 nM)", "setting": "[7]; C-6 glioblastoma cells, analog 10 µM plus ET-1 0.1 nM", "value": "10.9 ± 1.8", "unit": "dpm x 10^3"},
      {"measurement": "effect on endothelin-1-simulated increases in [^3H]IP in C-6 cells", "setting": "[7]", "value": "had no effect"},
      {"measurement": "effect on endothelin-1-simulated increases in [^3H]IP in C-6 cells", "setting": "[7]; listed as Cycle SS-octa", "value": "did not inhibit"},
      {"measurement": "inhibition of binding to α2- adrenergic", "setting": "[8]", "value": "did not inhibit binding"},
      {"measurement": "inhibition of binding to delta opioid", "setting": "[9]", "value": "did not inhibit binding"},
      {"measurement": "inhibition of binding to α1- adrenergic", "setting": "[10]", "value": "did not inhibit binding"},
      {"measurement": "inhibition of binding to CCKB", "setting": "[11]", "value": "did not inhibit binding"},
      {"measurement": "inhibition of binding to bradykinin1", "setting": "[12]", "value": "did not inhibit binding"},
      {"measurement": "inhibition of binding to muscarinic cholinergic", "setting": "[13]", "value": "did not inhibit binding"},
      {"measurement": "inhibition of binding to β1-adrenergic", "setting": "[14]", "value": "did not inhibit binding"},
      {"measurement": "inhibition of binding to sigma opioid", "setting": "[15]", "value": "did not inhibit binding"},
      {"measurement": "inhibition of binding to N-methyl D-aspartate receptors", "setting": "[16]", "value": "did not inhibit binding"},
      {"measurement": "inhibition of binding to histamine H1", "setting": "[17]", "value": "did not inhibit binding"}
    ]}
  ]
}
